In patent US20100210667A1, “IMIDAZO [1, 2-C] PYRIMIDIN-2-YLMETHYLPIPERIDINES AS OREXIN RECEPTOR ANTAGONISTS” (priority 2007, published 2010):
Ends that are not written are not given here.

Target: T1, human cloned orexin-1 receptor (alanine at position 280) (Homo sapiens, UniProt O43613)
T1 construct: expressed in transfected cells
T1 sequence (O43613 1-425): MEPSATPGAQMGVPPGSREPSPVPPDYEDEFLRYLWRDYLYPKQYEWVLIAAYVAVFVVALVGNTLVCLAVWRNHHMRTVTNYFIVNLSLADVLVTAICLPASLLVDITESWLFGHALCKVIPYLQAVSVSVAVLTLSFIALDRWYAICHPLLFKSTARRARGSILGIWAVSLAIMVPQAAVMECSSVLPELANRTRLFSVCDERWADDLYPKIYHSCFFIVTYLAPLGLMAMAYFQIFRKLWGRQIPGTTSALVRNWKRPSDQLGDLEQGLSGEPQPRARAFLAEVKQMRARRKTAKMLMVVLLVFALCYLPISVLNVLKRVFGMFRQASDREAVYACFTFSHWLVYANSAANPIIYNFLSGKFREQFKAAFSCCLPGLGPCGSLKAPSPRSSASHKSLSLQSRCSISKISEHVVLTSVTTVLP
Experiment: Antagonist affinity at human orexin-1 receptor using FLIPR ([Ca2+]i, CHO cells)
Assay type: cell-based
Conditions: hOrexin A at EC80, IC50 converted to functional pKi by modified Cheng-Prusoff, read-out: fpKi at the human cloned orexin-1 receptor
Source text: Determination of ANTAGONIST AFFINITY at Human Orexin-1 and 2 Receptors Using FLIPR
Adherent Chinese Hamster Ovary (CHO) cells, stably expressing the recombinant human Orexin-1 or human Orexin-2 receptors or Rat Basophilic Leukaemia Cells (RBL) stably expressing recombinant rat Orexin-1 or rat Orexin-2 receptors were maintained in culture in Alpha Minimum Essential Medium (Gibco/Invitrogen, cat. no.; 22571-020), supplemented with 10% decomplemented foetal bovine serum (Life Technologies, cat. no. 10106-078) and 400 μg/mL Geneticin G418 (Calbiochem, cat. no.345810). Cells were grown as monolayers under 95%:5% air:CO2 at 37° C.
The sequences of the human orexin 1, human orexin 2, rat orexin 1 and rat orexin 2 receptors used in this example were as published in Sakurai, T. et al (1998) Cell, 92 pp 573 to 585, with the exception that the human orexin 1 receptor sequence used had the amino acid residue alanine at position 280 and not glycine as reported in Sakurai et al.
Cells were seeded into black clear-bottom 384-well plates (density of 20,000 cells per well) in culture medium as described above and maintained overnight (95%:5% air:CO2 at 37° C.). On the day of the experiment, culture medium were discarded and the cells washed three times with standard buffer (NaCl, 145 mM; KCl, 5 mM; HEPES, 20 mM; Glucose, 5.5 mM; MgCl2, 1 mM; CaCl2, 2 mM) added with Probenecid 2.5 mM. The plates were then incubated at 37° C. for 60 minutes in the dark with 1 μM FLUO-4AM dye to allow cell uptake of the FLUO-4AM, which is subsequently converted by intracellular esterases to FLUO-4, which is unable to leave the cells. After incubation, cells were washed three times with standard buffer to remove extracellular dye and 30 μL of buffer were left in each well after washing.
Compounds of the invention were tested in a final assay concentration range from 1.66×10^−5M to 1.58×10^−11M. Compounds of the invention were dissolved in dimethylsulfoxide (DMSO) at a stock concentration of 10 mM. These stock solutions were serially diluted with DMSO and 1 μL of each dilution was transferred to a 384 well compound plate. Immediately before introducing compound to the cells, buffer solution (50 μl/well) was added to this plate. To allow agonist stimulation of the cells, a stock plate containing a solution of human orexin A (hOrexin A) was diluted with buffer to final concentration just before use. This final concentration of hOrexin A was equivalent to the calculated EC80 for hOrexinA agonist potency in this test system. This value was obtained by testing hOrexinA in concentration response curve (at least 16 replicates) the same day of the experiment.
The loaded cells were then incubated for 10min at 37° C. with test compound. The plates were then placed into a FLIPRTM (Molecular Devices, UK) to monitor cell fluorescence (λex=488 nm, λEM=540 nm) (Sullivan E, Tucker E M, Dale I L. Measurement of [Ca^2+]i, using the fluometric imaging plate reader (FLIPR). In: Lambert D G (ed.), Calcium Signaling Protocols. New Jersey: Humana Press, 1999, 125-136). A baseline fluorescence reading was taken over a 5 to 10 second period, and then 10 μL of EC80 hOrexinA solution was added. The fluorescence was then read over a 4-5 minute period.
Functional responses using FLIPR were measured as peak fluorescence intensity minus basal fluorescence and expressed as a percentage of a non-inhibited Orexin-A-induced response on the same plate. […]

Ki [nM]	Molecule
0.631 to 3.98	Cc1nc(C(=O)N2CCCC[C@H]2Cc2cn3cnc(Cl)c(C)c3n2)c(-c2ccccc2)s1 [Example 1, 7-chloro-8-methyl-2-({2S)-1-[(2-methyl-5-phenyl-1,3-thiazol-4-ylcarbonyl]-2-piperidinyl}methyl)imidazo[1,2-c]pyrimidine]
0.631 to 3.98	Cc1nc(C(=O)N2CCCC[C@H]2Cc2cn3cncc(C)c3n2)c(-c2ccccc2)s1 [Example 2]
0.631 to 3.98	COc1ncn2cc(C[C@@H]3CCCCN3C(=O)c3nc(C)sc3-c3ccccc3)nc2c1C [Example 3, 8-methyl-7-(methyloxy)-2-({(2-S)-1-[(2-methyl-5-phenyl-1,3-thiazol-4-yl)carbonyl]-2-piperidinyl}methyl)imidazo[1,2-c]pyrimidine]
0.631 to 3.98	Cc1nc(C(=O)N2CCCC[C@H]2Cc2cn3cnc(C)c(Cl)c3n2)c(-c2ccccc2)s1 [Example 4, 8-chloro-7-methyl-2-({(2S)-1-[(2-methyl-5-phenyl-1,3-thiazol-4-yl)carbonyl]-2-piperidinyl}methyl)imidazo[1,2-c]pyrimidine]
0.631 to 3.98	Cc1nc(C(=O)N2CCCC[C@H]2Cc2cn3cnc(C)c(C)c3n2)c(-c2ccccc2)s1 [Example 5, 7,8-dimethyl-2-({(2S)-1-[(2-methyl-5-phenyl-1,3-thiazol-4-yl)carbonyl]-2-piperidinyl}methyl)imidazo[1,2-c]pyrimidine]

Tested on: food intake
Experiment: not given
Conditions: central administration, freely-feeding rats, 4 hour time period; cited from earlier work

Molecule	increase of food intake over control rats receiving vehicle
orexin-A: polypeptide ligand for the orexin-1 receptor, an agonist of the orexin receptors (QPLPDCCRQKTCSCRLYELLHGAGNHAAGILTL; ends and bridges not checked; cysteine pairing not given here; UniProt O43612 34-66, looked up)	approximately four-fold
